Data as given in the supplement of paper PMC12325586.

System: MIA PaCa-2
[1] = OFD1 knockdown: no (no doxycycline)
[2] = OFD1 knockdown: yes (Tet-on shOFD1, 100 ng/mL doxycycline)

Compound	IC50 cell viability [1]	IC50 cell viability [2]
CC(=O)O[C@H]1C(=O)[C@@]2(C)[C@H]([C@H](OC(=O)c3ccccc3)[C@]3(O)C[C@H](OC(=O)[C@H](O)[C@@H](NC(=O)c4ccccc4)c4ccccc4)C(C)=C1C3(C)C)[C@]1(OC(C)=O)CO[C@@H]1C[C@@H]2O [S1150]	19 µM	17.6 µM
COC(=O)c1ccc2c(C(=Nc3ccc(N(C)C(=O)CN4CCN(C)CC4)cc3)c3ccccc3)c(O)[nH]c2c1 [S1010]	4.96 µM	4.24 µM
O=S(=O)(O)CCSSCCS(=O)(=O)O [S1201]	82.1 µM	70.3 µM
O=C(CCCCCCC(=O)Nc1ccccc1)NO [S1047]	5.55 µM	5.13 µM
Cc1cn(-c2cc(NC(=O)c3ccc(C)c(Nc4nccc(-c5cccnc5)n4)c3)cc(C(F)(F)F)c2)cn1 [S1033]	18.9 µM	17.3 µM
CC(C)OC(=O)C(C(=O)OC(C)C)=C1SC=CS1 [S1137]	38.1 µM	36.1 µM
CC(C)(C#N)c1cc(Cn2cncn2)cc(C(C)(C)C#N)c1 [S1188]	47.1 µM	59.2 µM
CC(O)(CS(=O)(=O)c1ccc(F)cc1)C(=O)Nc1ccc(C#N)c(C(F)(F)F)c1 (stereo unspecified) [S1190]	53.5 µM	45.6 µM
CN(C)C/C=C/C(=O)Nc1cc2c(Nc3ccc(F)c(Cl)c3)ncnc2cc1O[C@H]1CCOC1 [S1011]	66.1 µM	87.7 µM
CNC(=O)c1cc(Oc2ccc(NC(=O)Nc3ccc(Cl)c(C(F)(F)F)c3)c(F)c2)ccn1 [S1178]	1.56 µM	1.28 µM
Cc1nc(=O)c2cc(CN(C)c3ccc(C(=O)N[C@@H](CCC(=O)O)C(=O)O)s3)ccc2[nH]1 [S1192]	15.8 µM	14.1 µM
Nc1ncn([C@H]2C[C@H](O)[C@@H](CO)O2)c(=O)n1 [S1200]	74.8 µM	77.2 µM
O=C(c1cc(Cc2n[nH]c(=O)c3ccccc23)ccc1F)N1CCN(C(=O)C2CC2)CC1 [S1060]	53.8 µM	31.9 µM

Second part, the compound after the results:

IC50 cell viability [1]	IC50 cell viability [2]	Compound
17.6 µM	16.8 µM	C[C@H]1C[C@H]2[C@@H]3CCC4=CC(=O)C=C[C@]4(C)[C@H]3C(=O)C[C@]2(C)[C@@]1(O)C(=O)CO [S1689]
0.63 µM	0.58 µM	COc1cccc2c1C(=O)c1c(O)c3c(c(O)c1C2=O)C[C@@](O)(C(=O)CO)C[C@@H]3O[C@H]1C[C@H](N)[C@@H](O)[C@H](C)O1 [S1223]
4.02 µM	3.69 µM	O=C(O)c1ccc2c(c1)nc(Nc1cccc(Cl)c1)c1ccncc12 [S2248]
3.41 µM	3.2 µM	Cc1c(C(=O)Nc2ccc(N3C[C@@H](C)O[C@@H](C)C3)nc2)cccc1-c1ccc(OC(F)(F)F)cc1 [S2151]
18 µM	18.8 µM	C[C@]12CC[C@@H]3c4ccc(O)cc4CC[C@H]3[C@@H]1CC[C@@H]2O [S1709]
52.8 µM	51.9 µM	CN(C)/N=N/c1[nH]cnc1C(N)=O [S1221]
46.3 µM	49.8 µM	CCN(CC)C(=S)SSC(=S)N(CC)CC [S1680]
19.6 µM	17.9 µM	N#CC[C@H](C1CCCC1)n1cc(-c2ncnc3[nH]ccc23)cn1 [S2902]
2.72 µM	3.16 µM	CCc1ccc(CCOc2ccc(CC3SC(=O)NC3=O)cc2)nc1 (stereo unspecified) [S2590]
19.2 µM	18.3 µM	O=S(=O)(O)CCS [S1735]
